# Results: US6620831B2, “Indazoles substituted with 1,1-dioxoisothiazolidine useful as inhibitors of cell proliferation” (LG Life Sciences Ltd., priority 2000, dated 2003)
# Biological target: T1, CDK2/cyclin A (Homo sapiens, UniProt P24941)
# T1 construct: made in house; host or cells: insect ('worm') cells co-infected with baculoviruses
# Experiment: CDK2 inhibitory activity (CDK2/cyclin A, [gamma-32P] ATP, histon H1 or Rb protein substrate)
# Assay type: biochemical
# Details: first IC50 column (c1) of Table 1
# Source text: CDK2 enzyme was obtained from either extract from the worm cell co-infected with baculovirus which expresses a CDK2 gene and baculovirus which expresses a cyclin A gene, or active enzyme purified therefrom. CDK4 was also obtained from either extract from the worm cell co-infected with baculovirus which expresses a CDK4 gene and baculovirus which expresses a cyclin D1 gene. As substrates, histon H1 or Rb protein was used for CDK2, and Rb protein for CDK4. The radioactive activities in substrates were determined by reacting compounds diluted with each concentration with a proper quantity of CDK2/cyclin A or CDK4/cyclin D1 and substrate protein, and [gamma-32P labeled] ATP, and then separating the substrates.
# Inhibitory abilities of inhibitors according to the present invention for each enzyme activity were expressed as IC50 values, which were determined in accordance with the method as described above.
row,IC50,SMILES
1,< 0.1 µM,"NCCOc1ccc(CC(=O)Nc2n[nH]c3ccc(N4CCCS4(=O)=O)cc23)cc1 [Compound 75, 2-[4-(2-aminoethoxy)phenyl]-N-[5-(1,1-dioxo-1λ^6-isothiazolidin-2-yl)-1H-indazol-3-yl]acetamide]"
2,< 0.05 µM,"O=C(Cc1ccc2ccccc2c1)Nc1n[nH]c2ccc(N3CCCS3(=O)=O)cc12 [Compound 17, N-[5-(1,1-dioxo-1λ^6-isothiazolidin-2-yl)-1H-indazol-3-yl]-2-(2-naphthyl)acetamide]"
3,< 0.05 µM,"O=C(Cn1cnc(-c2ccccc2)c1)Nc1n[nH]c2ccc(N3CCCS3(=O)=O)cc12 [Compound 47, N-[5-(1,1-dioxo-1λ^6-isothiazolidin-2-yl)-1H-indazol-3-yl]-2-(4-phenyl-1H-imidazol-1-yl)acetamide]"
4,< 0.05 µM,"O=C(Cc1cccc(Cl)c1)Nc1n[nH]c2ccc(N3CCCS3(=O)=O)cc12 [Compound 2, 2-(3-chlorophenyl)-N-[5-(1,1-dioxo-1λ^6-isothiazolidin-2-yl)-1H-indazol-3-yl]acetamide]"
5,< 0.5 µM,"CCNc1nc(CC(=O)Nc2n[nH]c3ccc(N4CCCS4(=O)=O)cc23)cs1 [Compound 64, N-[5-(1,1-dioxo-1λ^6-isothiazolidin-2-yl)-1H-indazol-3-yl]-2-[2-(ethylamino)-1,3-thiazol-4-yl]acetamide]"
6,< 0.1 µM,"O=C(Cn1cnc(-c2ccc(Br)cc2)c1)Nc1n[nH]c2ccc(N3CCCS3(=O)=O)cc12 [Compound 61, 2-[4-(4-bromophenyl)-1H-imidazol-1-yl]-N-[5-(1,1-dioxo-1λ^6-isothiazolidin-2-yl)-1H-indazol-3-yl]acetamide]"
7,< 0.1 µM,"COCCOCCOCCOc1ccc(CC(=O)Nc2n[nH]c3ccc(N4CCCS4(=O)=O)cc23)cc1 [Compound 66, N-[5-(1,1-dioxo-1λ^6-isothiazolidin-2-yl)-1H-indazol-3-yl]-2-(4-2-[2-(2-methoxyethoxy)ethoxy]ethoxyphenyl)acetamide]"
8,< 100 µM,"O=C(Nc1n[nH]c2ccc(N3CCCS3(=O)=O)cc12)C1(c2ccccc2)CCCC1 [Compound 55, N-[5-(1,1-dioxo-1λ^6-isothiazolidin-2-yl)-1H-indazol-3-yl]-1-phenylcyclopentanecarboxamide]"
9,< 0.05 µM,"CC(C)c1ccc(CC(=O)Nc2n[nH]c3ccc(N4CCCS4(=O)=O)cc23)cc1 [Compound 26, N-[5-(1,1-dioxo-1λ^6-isothiazolidin-2-yl)-1H-indazol-3-yl]-2-(4-isopropylphenyl)acetamide]"
10,< 1 µM,"NCCOc1ccc(CC(=O)Nc2n[nH]c3ccc(N4CCCS4(=O)=O)cc23)cc1 [Compound 82, 2-[4-(2-aminoethoxy)phenyl]-N-[5-(1,1-dioxo-1λ^6-isothiazolidin-2-yl)-1H-indazol-3-yl]acetamide]"
11,< 0.05 µM,"O=C(Cc1ccc(F)cc1)Nc1n[nH]c2ccc(N3CCCS3(=O)=O)cc12 [Compound 9, N-[5-(1,1-dioxo-1λ^6-isothiazolidin-2-yl)-1H-indazol-3-yl]-2-(4-fluorophenyl)acetamide]"
12,< 0.1 µM,"O=C(Cc1ccc(S(=O)(=O)N2CCOCC2)cc1)Nc1n[nH]c2ccc(N3CCCS3(=O)=O)cc12 [Compound 37, N-[5-(1,1-dioxo-1λ^6-isothiazolidin-2-yl)-1H-indazol-3-yl]-2-[4-(4-morpholinylsulfonyl)phenyl]acetamide]"
13,< 0.1 µM,"O=C(Cc1ccc(OCc2ccccc2)cc1)Nc1n[nH]c2ccc(N3CCCS3(=O)=O)cc12 [Compound 3, 2-[4-(benzyloxy)phenyl]-N-[5-(1,1-dioxo-1λ^6-isothiazolidin-2-yl)-1H-indazol-3-yl]acetamide]"
14,< 0.05 µM,"CS(=O)(=O)c1ccc(CC(=O)Nc2n[nH]c3ccc(N4CCCS4(=O)=O)cc23)cc1 [Compound 29, N-[5-(1,1-dioxo-1λ^6-isothiazolidin-2-yl)-1H-indazol-3-yl]-2-[4-(methylsulfonyl)phenyl]acetamide]"
15,< 1 µM,"O=C(Cc1ccc(Cn2ccnc2)cc1)Nc1n[nH]c2ccc(N3CCCS3(=O)=O)cc12 [Compound 46, N-[5-(1,1-dioxo-1λ^6-isothiazolidin-2-yl)-1H-indazol-3-yl]-2-[4-(1H-imidazole-1-ylmethyl)phenyl]acetamide]"
